In US20090099192A1, “Substituted 1H-pyrrole-2,5-diones” (Bayer CropScience AG, priority 2004, published 2009):

Experiments:
[1] = logP determination by HPLC on reversed-phase column (C 18), EEC Directive 79/831 Annex V.A8; assay type: physicochemical; conditions: reversed-phase C 18, 43° C., acid range (0.1% aqueous phosphoric acid, acetonitrile), marked a)
How it was run: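 Reversed-phase C18 HPLC at 43° C, per EEC Directive 79/831 Annex V.A8, acid range: 0.1% aqueous phosphoric acid with linear 10–90% acetonitrile gradient. logP derived from retention time by linear interpolation between calibrating unbranched alkan-2-ones (C3–C16) of known logP.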

[2] = tested on: caterpillars of the army worm (Spodoptera frugiperda); test: Spodoptera frugiperda test (cabbage leaves dipped); assay type: in vivo; conditions: for Kill rate in % after 7 d: 500 ppm, leaf dip, Brassica oleracea
Protocol: (§1) [table] To produce a suitable preparation of active compound, 1 part by weight of active compound is mixed with the stated amount of solvent and the stated amount of emulsifier, and the concentrate is diluted with emulsifier-containing water to the desired concentration. Cabbage leaves (Brassica oleracea) are treated by being dipped into the active compound preparation of the desired concentration and populated with caterpillars of the army worm (Spodoptera frugiperda) while the leaves are still moist. After the desired period of time, the kill in % is determined. 100% means that all caterpillars have been killed; 0% means that none of the caterpillars have been killed.

Meloidogyne incognita = test: Meloidogyne test (gall formation on lettuce roots); assay type: in vivo; conditions: for Kill rate in % after 14 d (nematicidal effect by gall formation): 20 ppm, lettuce in sand
Protocol: [table] To produce a suitable preparation of active compound, 1 part by weight of active compound is mixed with the stated amounts of solvent and emulsifier, and the concentrate is diluted with water to the desired concentration. Vessels are filled with sand, active compound solution, Meloidogyne incognita egg/larvae suspension and lettuce seeds. The lettuce seeds germinate and the plants develop. On the roots, galls are formed. After the desired period of time, the nematicidal effect is determined in % by means of gall formation. 100% means that no galls were found; 0% means that the number of galls on the treated plants corresponds to that of the untreated control.

[3] = tested on: caterpillars of the diamond back moth (Plutella xylostella); test: Plutella test; assay type: in vivo
Protocol: as §1, with “amounts” for “amount”, “and” for “and the stated amount of”, “diamond back moth (Plutella xylostella)” for “army worm (Spodoptera frugiperda)”

[4] = tested on: green peach aphid (Myzus persicae); test: Myzus test (spray treatment, Brassica pekinensis); assay type: in vivo; conditions: for Kill rate in % after 5 d: 500 g/ha, spray, Brassica pekinensis disks
Protocol: (§2) [table] To produce a suitable preparation of active compound, 1 part by weight of active compound is mixed with the stated amounts of solvents and emulsifier, and the concentrate is diluted with emulsifier-containing water to the desired concentration. Disks of Chinese cabbage (Brassica pekinensis) which are infested by all stages of the green peach aphid (Myzus persicae) are sprayed with an active compound preparation of the desired concentration. After the desired period of time, the effect in % is determined. 100% means that all aphids have been killed; 0% means that none of the aphids have been killed.

[5] = tested on: larvae of the mustard beetle (Phaedon cochleariae); test: Phaedon test (spray treatment); assay type: in vivo; conditions: for Kill rate in % after 7 d: 500 g/ha, spray, Brassica pekinensis disks
Protocol: (§3) [table] To produce a suitable preparation of active compound, 1 part by weight of active compound is mixed with the stated amounts of solvents and emulsifier, and the concentrate is diluted with emulsifier-containing water to the desired concentration. Disks of Chinese cabbage (Brassica pekinensis) are sprayed with an active compound preparation of the desired concentration and, after drying, populated with larvae of the mustard beetle (Phaedon cochleariae). After the desired period of time, the effect in % is determined. 100% means that all beetle larvae have been killed; 0% means that none of the beetle larvae have been killed.

[6] = tested on: green peach aphid (Myzus persicae); test: Myzus test - oral; assay type: in vivo; conditions: for Kill rate in % after 6 d: oral (sucking)
Protocol: as §2, with “solvent,” for “solvents and emulsifier,”, “with” for “with emulsifier-containing”, “Vessels” for “Disks of Chinese cabbage (Brassica pekinensis) which”, “populated with” for “infested by”, “persicae), which” for “persicae)”, “treated by sucking on the” for “sprayed with an”

[7] = tested on: caterpillars of the army worm (Spodoptera frugiperda); test: Spodoptera frugiperda test (corn leaf disks sprayed); assay type: in vivo; conditions: for Kill rate in % after 7 d: 500 g/ha, spray, Zea mays leaf disks
Protocol: as §3, with “corn leaves (Zea mays)” for “Chinese cabbage (Brassica pekinensis)”, “caterpillars” for “larvae”, “army worm (Spodoptera frugiperda).” for “mustard beetle (Phaedon cochleariae).”, “caterpillars” for “beetle larvae”

[8] = tested on: cotton aphid (Aphis gossypii); test: Aphis gossypii test; assay type: in vivo; conditions: for Kill rate in % after 7 d: 500 g/ha, spray, Gossypium hirsutum
Protocol: (§4) [table] To produce a suitable preparation of active compound, 1 part by weight of active compound is mixed with the stated amounts of solvent and emulsifier, and the concentrate is diluted with emulsifier-containing water to the desired concentration. Cotton leaves (Gossypium hirsutum) which are heavily infested by the cotton aphid (Aphis gossypii) are treated by spraying with the active compound preparation at the desired concentration. After the desired period of time, the kill in % is determined. 100% means that all animals have been killed; 0% means that none of the animals have been killed.

[9] = tested on: green peach aphid (Myzus persicae); test: Myzus test (spray treatment, Brassica oleracea); assay type: in vivo; conditions: for Kill rate in % after 7 d: 500 g/ha, spray, Brassica oleracea
Protocol: as §4, with “Cabbage” for “Cotton”, “(Brassica oleracea)” for “(Gossypium hirsutum)”, “green peach” for “cotton”, “(Myzus persicae)” for “(Aphis gossypii)”

[10] = tested on: common spidermite (Tetranychus urticae); test: Tetranychus test; assay type: in vivo; conditions: for Kill rate in % after 5 d: 500 ppm, spray, Phaseolus vulgaris disks
Protocol: To produce a suitable preparation of active compound, 1 part by weight of active compound is mixed with the stated amounts of solvent and emulsifier, and the concentrate is diluted with emulsifier-containing water to the desired concentration.
Disks of beans (Phaseolus vulgaris), which are infested by all stages of the common spidermite (Tetranychus urticae) are sprayed with an active compound preparation of the desired concentration.
After the desired period of time, the effect in % is determined. 100% means that all spidermites have been killed; 0% means that none of the spidermites have been killed.

SMILES	logP [1]	activity in the Meloidogyne test (Meloidogyne incognita)	Kill rate in % after 14 d (nematicidal effect by gall formation) (Meloidogyne incognita) [%]	activity in the Myzus test (spray, Brassica pekinensis) [4]	Kill rate in % after 5 d [4] [%]	activity in the Phaedon test (spray treatment) [5]	Kill rate in % after 7 d [5] [%]	activity in the Myzus test - oral [6]	activity in the Spodoptera frugiperda test (spray) [7]	Kill rate in % after 7 d [7] [%]	activity in the Tetranychus test [10]	Kill rate in % after 5 d [10] [%]	further results
N#Cc1ccc(C2=C(O)C(=O)N(C3CCCC(C(F)(F)F)C3)C2=O)cc1 (centres unmarked) [Example 215]	logP = 3.04^a)	good activity	80										activity in the Spodoptera frugiperda test (leaf dip) [2]: good activity; Kill rate in % after 7 d [2]: 85%
CCN1C(=O)C(OC(C)=O)=C(c2c(C)cc(C)cc2C)C1=O [Example 3]				good activity	90								activity in the Plutella test [3]: good activity; Kill rate in % after 7 d ([3]; 1000 ppm, leaf dip): 90%
CCN1C(=O)C(O)=C(c2c(C)cc(C)cc2C)C1=O [Example 1, 1-ethyl-3-hydroxy-4-(2,4,6-trimethylphenyl)-1H-pyrrole-2,5-dione]													melting point: 168 °C
O=C1C(O)=C(c2ccc(C(F)(F)F)cc2)C(=O)N1c1ccc(OC(F)(F)F)cc1 [Example 10]	logP = 3.64^a)	good activity	99										activity in the Spodoptera frugiperda test (leaf dip) [2]: good activity; Kill rate in % after 7 d [2]: 100%
O=C1C(O)=C(c2ccccc2C(F)(F)F)C(=O)N1C1CCCC(C(F)(F)F)C1 (centres unmarked) [Example 217]				good activity	100	good activity	100	good activity	good activity	100			Kill rate in % after 6 d ([6]; 100 ppm): 100%
CC(C)(C)C(=O)OC1=C(c2ccccc2C(F)(F)F)C(=O)N(C2CCCC(C(F)(F)F)C2)C1=O (centres unmarked) [Example 220]		good activity	80	good activity	100	good activity	100						
CC(C)(C)C(=O)OC1=C(c2ccccc2Cl)C(=O)N(C2CCCC(C(F)(F)F)C2)C1=O (centres unmarked) [Example 201]	logP = 5.29^a)			good activity	100	good activity	100	good activity	good activity	100	good activity	100	activity in the Aphis gossypii test [8]: good activity; Kill rate in % after 7 d [8]: 99%; Kill rate in % after 6 d ([6]; 20 ppm): 100%; activity in the Myzus test (spray, Brassica oleracea) [9]: good activity; Kill rate in % after 7 d [9]: 98%
CC(C)(C)C(=O)OC1=C(c2ccccc2Br)C(=O)N(C2CCCC(C(F)(F)F)C2)C1=O (centres unmarked) [Example 185]	logP = 5.34^a)			good activity	100	good activity	100	good activity	good activity	100	good activity	80	activity in the Aphis gossypii test [8]: good activity; Kill rate in % after 7 d [8]: 95%; Kill rate in % after 6 d ([6]; 20 ppm): 100%; activity in the Myzus test (spray, Brassica oleracea) [9]: good activity; Kill rate in % after 7 d [9]: 95%
O=C1C(O)=C(c2ccc(F)cc2C(F)(F)F)C(=O)N1C1CCCC(C(F)(F)F)C1 (centres unmarked) [Example 192]	logP = 3.56^a)					good activity	100	good activity			good activity	90	
